From US20230159445A1, “STAT INHIBITORY COMPOUNDS AND COMPOSITIONS” (JANPIX LIMITED, priority 2020, published 2023)

Legend:
[1] = system: MV4-11 cells; assay: MV4-11 Cell Cytotoxicity Assay (CellTiter-Blue, 72 h); assay type: cell-based, human; details: Homo sapiens, MV4-11; MV-4-11 cells
Summary of the method: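 Cells seeded 24 h before treatment, then exposed 72 h at 37° C, 5% CO2 to inhibitors in triplicate, top concentration 50 μM with 1:2 serial dilutions (0.5% DMSO vehicle). Viability read by CellTiter-Blue fluorescence at 560/590 nm after 1 h.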

[2] = system: glutathione (GSH); assay: Reactivity Profiling with Glutathione (GSH), half-life by HPLC; details: 5 mM glutathione (GSH) in IMDM with 10% FBS
[3] = system: normal human fibroblast (NHF) cells; assay: NHF Cell Cytotoxicity Assay (CellTiter-Blue, 72 h), off-target effects; assay type: cell-based; details: Homo sapiens, Fibroblast; pooled NHF cells
Summary of the method: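 Normal human fibroblasts (1×10^4/well, 10% FBS medium) were treated after 24 h with inhibitor at 0.097656-50 μM for 72 h at 37° C. Viability was read by CellTiter-Blue fluorescence (560/590 nm), normalized to DMSO control, and IC50 obtained from a variable-slope log(inhibitor)-response fit of four replicates.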

How did the IC50 [1] turn out when Cc1cc(C(=O)O)ccc1N(Cc1cc(C2CC2)cc(C2CC2)c1)C(=O)CN(Cc1c(F)cc(F)cc1F)S(=O)(=O)c1c(F)c(F)c(F)c(F)c1F [Compound 1218, 4-(N-(3,5-dicyclopropylbenzyl)-2-(N-(2,4,6-trifluorobenzyl)-(2,3,4,5,6-pentafluoro-phenyl)sulfonamido)acetamido)-3-methylbenzoic acid] was run?
Its IC50 is 0.01 to 316 nM.

What about the half-life at 25 μM [2] of the same molecule?
The half-life at 25 μM was 0.00167 to 2.37 h.

And the IC50 [3]?
Its IC50 is 1 to 10000 nM.

With Cc1cc(C(=O)O)ccc1N(Cc1cc(C2CC2)cc(C2CC2)c1)C(=O)CN(Cc1ccc(F)cc1Cl)S(=O)(=O)c1c(F)c(F)c(F)c(F)c1F [Compound 1219, 4-(2-(N-(2-chloro-4-fluorobenzyl)-(2,3,4,5,6-pentafluorophenyl)sulfon-amido)-N-(3,5-dicyclopropylbenzyl)acetamido)-3-methylbenzoic acid] as the molecule, how does the IC50 [1] read?
The IC50 was 0.01 to 316 nM.

And the half-life at 25 μM [2]?
The half-life at 25 μM was 2.37 to 4.12 h.

And the IC50 [3]?
The IC50 was 1 to 10000 nM.

For O=C(O)c1ccc(N(Cc2cc(C3CC3)cc(C3CC3)c2)C(=O)CN(Cc2ccc(F)cc2Cl)S(=O)(=O)c2c(F)c(F)c(F)c(F)c2F)c(OC2CCOC2)c1 (stereo not drawn) [Compound 1220, 4-(2-(N-(2-chloro-4-fluorobenzyl)-(2,3,4,5,6-pentafluorophenyl)sulfon-amido)-N-(3,5-dicyclopropylbenzyl)acetamido)-3-((tetrahydrofuran-3-yl)oxy)benzoic acid], which IC50 [1] is on record?
The IC50 was 0.01 to 316 nM.

What about the half-life at 25 μM [2] of the same molecule?
Its half-life at 25 μM is 2.37 to 4.12 h.

And the IC50 [3]?
Its IC50 is 1 to 10000 nM.

With O=C(O)c1ccc(N(Cc2cc(C3CC3)cc(C(F)(F)F)c2)C(=O)CN(Cc2ccccc2C(F)(F)F)S(=O)(=O)c2c(F)c(F)c(F)c(F)c2F)c(OC2CC2)c1 [Compound 1221, 3-cyclopropoxy-4-(N-(3-cyclopropyl-5-(trifluoromethyl)benzyl)-2-(N-(2-(trifluoromethyl)benzyl)-(2,3,4,5,6-pentafluoro-phenyl)sulfonamido)acetamido)benzoic acid] as the molecule, how does the IC50 [1] read?
Its IC50 is 316 to 1000 nM.

And the half-life at 25 μM [2]?
Its half-life at 25 μM is 9.23 to 1670 h.

What about the IC50 [3] of the same molecule?
Its IC50 is 20000 to 30000 nM.

With O=C(O)c1ccc(N(Cc2cc(C3CC3)cc(C(F)(F)F)c2)C(=O)CN(Cc2ccc(F)cc2Cl)S(=O)(=O)c2c(F)c(F)c(F)c(F)c2F)c(OC2CC2)c1 [Compound 1222, 4-(2-(N-(2-chloro-4-fluorobenzyl)-(2,3,4,5,6-pentafluorophenyl)sulfon-amido)-N-(3-cyclopropyl-5-(trifluoromethyl)benzyl)acetamido)-3-cyclopropoxybenzoic acid] as the molecule, how does the IC50 [1] read?
Its IC50 is 0.01 to 316 nM.

What about the half-life at 25 μM [2] of the same molecule?
Its half-life at 25 μM is 4.12 to 9.23 h.

What about the IC50 [3] of the same molecule?
The IC50 was 10000 to 20000 nM.

Which results are given for CC(C)(C)c1cc(CN(C(=O)CN(Cc2ccc(F)cc2Cl)S(=O)(=O)c2c(F)c(F)c(F)c(F)c2F)c2ccc(C(=O)O)cc2OC2CCOC2)cc(C2CC2)c1 (stereo not drawn) [Compound 1226, 4-(N-(3-(tert-butyl)-5-cyclopropylbenzyl)-2-(N-(2-chloro-4-fluorobenzyl)-(2,3,4,5,6-pentafluorophenyl)sulfon-amido)acetamido)-3-((tetrahydrofuran-3-yl)oxy)benzoic acid]?
IC50 [1]: 0.01 to 316 nM; half-life at 25 μM [2]: 2.37 to 4.12 h; IC50 [3]: 1 to 10000 nM

With CCOc1cc(C(=O)O)ccc1N(Cc1cc(C2CC2)cc(C(C)(C)C)c1)C(=O)CN(Cc1ccc(F)cc1Cl)S(=O)(=O)c1c(F)c(F)c(F)c(F)c1F [Compound 1227, 4-(N-(3-(tert-butyl)-5-cyclopropylbenzyl)-2-(N-(2-chloro-4-fluorobenzyl)-(2,3,4,5,6-pentafluorophenyl)sulfon-amido)acetamido)-3-ethoxybenzoic acid] as the molecule, how does the IC50 [1] read?
Its IC50 is 0.01 to 316 nM.

And the half-life at 25 μM [2]?
Its half-life at 25 μM is 4.12 to 9.23 h.

What about the IC50 [3] of the same molecule?
Its IC50 is 10000 to 20000 nM.

For CC(C)Oc1cc(C(=O)O)ccc1N(Cc1cc(C2CC2)cc(C(C)(C)C)c1)C(=O)CN(Cc1ccc(F)cc1Cl)S(=O)(=O)c1c(F)c(F)c(F)c(F)c1F [Compound 1228, 4-(N-(3-(tert-butyl)-5-cyclopropylbenzyl)-2-(N-(2-chloro-4-fluorobenzyl)-(2,3,4,5,6-pentafluorophenyl)sulfon-amido)acetamido)-3-isopropoxybenzoic acid], which IC50 [1] is on record?
The IC50 was 0.01 to 316 nM.

What about the half-life at 25 μM [2] of the same molecule?
The half-life at 25 μM was 9.23 to 1670 h.

What about the IC50 [3] of the same molecule?
The IC50 was 20000 to 30000 nM.

What does the source list for O=C(O)c1ccc(N(Cc2cc(C3CC3)cc(C3CC3)c2)C(=O)CN(Cc2ccc(F)cc2Cl)S(=O)(=O)c2c(F)c(F)c(F)c(F)c2F)c(OC(F)(F)F)c1 [Compound 1231, 4-(2-(N-(2-chloro-4-fluorobenzyl)-(2,3,4,5,6-pentafluorophenyl)sulfon-amido)-N-(3,5-dicyclopropylbenzyl)acetamido)-3-(trifluoromethoxy) benzoic acid]?
IC50 [1]: 0.01 to 316 nM; half-life at 25 μM [2]: 4.12 to 9.23 h; IC50 [3]: 10000 to 20000 nM

What does the source list for CC(C)Oc1cc(CN(C(=O)CN(Cc2ccc(F)cc2Cl)S(=O)(=O)c2c(F)c(F)c(F)c(F)c2F)c2ccc(C(=O)O)cc2OC2CC2)cc(C2CC2)c1 [Compound 1232, 4-(2-(N-(2-chloro-4-fluorobenzyl)-(2,3,4,5,6-pentafluorophenyl)sulfon-amido)-N-(3-cyclopropyl-5-isopropoxybenzyl)acetamido)-3-cyclopropoxybenzoic acid]?
IC50 [1]: 0.01 to 316 nM; half-life at 25 μM [2]: 4.12 to 9.23 h; IC50 [3]: 10000 to 20000 nM

For CC(C)(C)c1cc(CN(C(=O)CN(Cc2c(F)cccc2Cl)S(=O)(=O)c2c(F)c(F)c(F)c(F)c2F)c2ccc(C(=O)O)cc2OC2CC2)cc(C2CC2)c1 [Compound 1238, 4-(N-(3-(tert-butyl)-5-cyclopropylbenzyl)-2-(N-(2-chloro-6-fluorobenzyl)-(2,3,4,5,6-pentafluorophenyl)sulfon-amido)acetamido)-3-cyclopropoxybenzoic acid], which IC50 [1] is on record?
Its IC50 is 0.01 to 316 nM.

And the half-life at 25 μM [2]?
The half-life at 25 μM was 9.23 to 1670 h.

What about the IC50 [3] of the same molecule?
Its IC50 is 10000 to 20000 nM.

What does the source list for O=C(O)c1ccc(N(Cc2cc(C3CC3)cc(C3CC3)c2)C(=O)CN(Cc2ccc(F)cc2Cl)S(=O)(=O)c2c(F)c(F)c(F)c(F)c2F)c(N2CCOCC2)c1 [Compound 1241, 4-(2-(N-(2-chloro-4-fluorobenzyl)-(2,3,4,5,6-pentafluorophenyl)sulfon-amido)-N-(3,5-dicyclopropylbenzyl)acetamido)-3-morpholinobenzoic acid]?
IC50 [1]: 0.01 to 316 nM; half-life at 25 μM [2]: 4.12 to 9.23 h; IC50 [3]: 1 to 10000 nM

Which results are given for O=C(O)c1ccc(N(Cc2cc(C3CC3)cc(C3CC3)c2)C(=O)CN(CCc2ccc(F)cc2Cl)S(=O)(=O)c2c(F)c(F)c(F)c(F)c2F)c(OC2CC2)c1 [Compound 1242, 4-(2-(N-(2-chloro-4-fluorophenethyl)-(2,3,4,5,6-pentafluorophenyl)sulfon-amido)-N-(3,5-dicyclopropylbenzyl)acetamido)-3-cyclopropoxybenzoic acid]?
IC50 [1]: 316 to 1000 nM; half-life at 25 μM [2]: 0.00167 to 2.37 h; IC50 [3]: 10000 to 20000 nM

What does the source list for COCCOc1cc(C(=O)O)ccc1N(Cc1cc(C2CC2)cc(C(C)(C)C)c1)C(=O)CN(Cc1ccc(F)cc1Cl)S(=O)(=O)c1c(F)c(F)c(F)c(F)c1F [Compound 1246, 4-(N-(3-(tert-butyl)-5-cyclopropylbenzyl)-2-(N-(2-chloro-4-fluorobenzyl)-(2,3,4,5,6-pentafluorophenyl)sulfon-amido)acetamido)-3-(2-methoxyethoxy)benzoic acid]?
IC50 [1]: 0.01 to 316 nM; half-life at 25 μM [2]: 2.37 to 4.12 h; IC50 [3]: 10000 to 20000 nM

How did the IC50 [1] turn out when Cc1cc(C(=O)O)ccc1N(Cc1cc(C2CC2)cc(C(C)(C)C)c1)C(=O)CN(Cc1cnccc1C(F)(F)F)S(=O)(=O)c1c(F)c(F)c(F)c(F)c1F [Compound 1251, 4-(N-(3-(tert-butyl)-5-cyclopropylbenzyl)-2-(N-((4-(trifluoromethyl)pyridin-3-yl)methyl)-(2,3,4,5,6-pentafluoro-phenyl)sulfonamido)acetamido)-3-methylbenzoic acid] was run?
Its IC50 is 0.01 to 316 nM.

And the half-life at 25 μM [2]?
The half-life at 25 μM was 0.00167 to 2.37 h.

What about the IC50 [3] of the same molecule?
Its IC50 is 1 to 10000 nM.

How did the IC50 [1] turn out when CCOc1cc(C(=O)O)ccc1N(Cc1cc(C2CC2)cc(C2CC2)c1)C(=O)CN(Cc1ccc(F)cc1Cl)S(=O)(=O)c1c(F)c(F)c(F)c(F)c1F [Compound 1252, 4-(2-(N-(2-chloro-4-fluorobenzyl)-(2,3,4,5,6-pentafluorophenyl)sulfon-amido)-N-(3,5-dicyclopropylbenzyl)acetamido)-3-ethoxybenzoic acid] was run?
The IC50 was 0.01 to 316 nM.

What about the half-life at 25 μM [2] of the same molecule?
Its half-life at 25 μM is 2.37 to 4.12 h.

And the IC50 [3]?
Its IC50 is 1 to 10000 nM.

CCCCOc1cc(C(=O)O)ccc1N(Cc1cc(C2CC2)cc(C2CC2)c1)C(=O)CN(Cc1ccc(F)cc1Cl)S(=O)(=O)c1c(F)c(F)c(F)c(F)c1F [Compound 1254, 3-butoxy-4-(2-(N-(2-chloro-4-fluorobenzyl)-(2,3,4,5,6-pentafluorophenyl)sulfon-amido)-N-(3,5-dicyclopropylbenzyl)acetamido)benzoic acid] was tested. Which IC50 [1] did it give?
The IC50 was 0.01 to 316 nM.

What about the half-life at 25 μM [2] of the same molecule?
The half-life at 25 μM was 9.23 to 1670 h.

And the IC50 [3]?
The IC50 was 20000 to 30000 nM.

C#CCOc1cc(C(=O)O)ccc1N(Cc1cc(C2CC2)cc(C2CC2)c1)C(=O)CN(Cc1ccc(F)cc1Cl)S(=O)(=O)c1c(F)c(F)c(F)c(F)c1F [Compound 1258, 4-(2-(N-(2-chloro-4-fluorobenzyl)-(2,3,4,5,6-pentafluorophenyl)sulfon-amido)-N-(3,5-dicyclopropylbenzyl)acetamido)-3-(prop-2-yn-1-yloxy)benzoic acid] was tested. Which IC50 [1] did it give?
Its IC50 is 0.01 to 316 nM.

And the half-life at 25 μM [2]?
The half-life at 25 μM was 0.00167 to 2.37 h.

What about the IC50 [3] of the same molecule?
Its IC50 is 10000 to 20000 nM.

Which IC50 [1] does the source give for CCOc1cc(C(=O)O)ccc1N(Cc1cc(C2CC2)cc(C(C)(C)C)c1)C(=O)CN(Cc1ccccc1C#N)S(=O)(=O)c1c(F)c(F)c(F)c(F)c1F [Compound 1272, 4-(N-(3-(tert-butyl)-5-cyclopropylbenzyl)-2-((N-(2-cyanobenzyl)-2,3,4,5,6-pentafluorophenyl)sulfonamido)acetamido)-3-ethoxybenzoic acid] here?
Its IC50 is 0.01 to 316 nM.

What about the half-life at 25 μM [2] of the same molecule?
Its half-life at 25 μM is 2.37 to 4.12 h.

And the IC50 [3]?
The IC50 was 10000 to 20000 nM.

What does the source list for CCOc1cc(C(=O)O)ccc1N(Cc1cc(C2CC2)cc(C2CC2)c1)C(=O)CN(Cc1ccccc1C#N)S(=O)(=O)c1c(F)c(F)c(F)c(F)c1F [Compound 1273, 4-(2-((N-(2-cyanobenzyl)-2,3,4,5,6-pentafluorophenyl)sulfonamido)-N-(3,5-dicyclopropylbenzyl)acetamido)-3-ethoxybenzoic acid]?
IC50 [1]: 0.01 to 316 nM; half-life at 25 μM [2]: 0.00167 to 2.37 h; IC50 [3]: 10000 to 20000 nM
